Experimental data published in paper PMC5392334, “Discovery and characterization of a novel irreversible EGFR mutants selective and potent kinase inhibitor CHMFL-EGFR-26 with a distinct binding mode” (Oncotarget, 2017).

Key:
[1] = biological target: T1, ABL1(F317I)-phosphorylated (Homo sapiens, UniProt P00519, F317I); test: KinomeScan; assay type: binding; conditions: read-out: % control
T1 construct: purchased DiscoveRx KINOMEscan

[2] = biological target: T2, ABL1(F317L)-nonphosphorylated (Homo sapiens, UniProt P00519, F317L); test: KinomeScan; assay type: binding; conditions: read-out: % control
T2 construct: purchased DiscoveRx KINOMEscan

ACVR1 = biological target: T3, ACVR1 (Homo sapiens, UniProt Q04771); test: KinomeScan; assay type: binding; conditions: read-out: % control
T3 construct: purchased DiscoveRx KINOMEscan

AKT3 = biological target: T4, AKT3 (Homo sapiens, UniProt Q9Y243); test: KinomeScan; assay type: binding; conditions: read-out: % control
T4 construct: purchased DiscoveRx KINOMEscan

AMPK-alpha1 = biological target: T5, AMPK-alpha1 (Homo sapiens, UniProt Q13131); test: KinomeScan; assay type: binding; conditions: read-out: % control
T5 construct: purchased DiscoveRx KINOMEscan

ANKK1 = biological target: T6, ANKK1 (Homo sapiens, UniProt Q8NFD2); test: KinomeScan; assay type: binding; conditions: read-out: % control
T6 construct: purchased DiscoveRx KINOMEscan

BRSK1 = biological target: T7, BRSK1 (Homo sapiens, UniProt Q8TDC3); test: KinomeScan; assay type: binding; conditions: read-out: % control
T7 construct: purchased DiscoveRx KINOMEscan

CASK = biological target: T8, CASK (Homo sapiens, UniProt O14936); test: KinomeScan; assay type: binding; conditions: read-out: % control
T8 construct: purchased DiscoveRx KINOMEscan

CDK4-cyclinD3 = biological target: T9, CDK4-cyclinD3 (Homo sapiens, UniProt P11802); test: KinomeScan; assay type: binding; conditions: read-out: % control
T9 construct: purchased DiscoveRx KINOMEscan

CDK7 = biological target: T10, CDK7 (Homo sapiens, UniProt P50613); test: KinomeScan; assay type: binding; conditions: read-out: % control
T10 construct: purchased DiscoveRx KINOMEscan

DLK = biological target: T11, DLK (Homo sapiens, UniProt Q12852); test: KinomeScan; assay type: binding; conditions: read-out: % control
T11 construct: purchased DiscoveRx KINOMEscan

DMPK2 = biological target: T12, DMPK2 (Homo sapiens, UniProt Q6DT37); test: KinomeScan; assay type: binding; conditions: read-out: % control
T12 construct: purchased DiscoveRx KINOMEscan

DYRK2 = biological target: T13, DYRK2 (Homo sapiens, UniProt Q92630); test: KinomeScan; assay type: binding; conditions: read-out: % control
T13 construct: purchased DiscoveRx KINOMEscan

EPHA4 = biological target: T14, EPHA4 (Homo sapiens, UniProt P54764); test: KinomeScan; assay type: binding; conditions: read-out: % control
T14 construct: purchased DiscoveRx KINOMEscan

FES = biological target: T15, FES (Homo sapiens, UniProt P07332); test: KinomeScan; assay type: binding; conditions: read-out: % control
T15 construct: purchased DiscoveRx KINOMEscan

ITK = biological target: T16, ITK (Homo sapiens, UniProt Q08881); test: KinomeScan; assay type: binding; conditions: read-out: % control
T16 construct: purchased DiscoveRx KINOMEscan

NDR1 = biological target: T17, NDR1 (Homo sapiens, UniProt Q15208); test: KinomeScan; assay type: binding; conditions: read-out: % control
T17 construct: purchased DiscoveRx KINOMEscan

NEK11 = biological target: T18, NEK11 (Homo sapiens, UniProt Q8NG66); test: KinomeScan; assay type: binding; conditions: read-out: % control
T18 construct: purchased DiscoveRx KINOMEscan

PAK1 = biological target: T19, PAK1 (Homo sapiens, UniProt Q13153); test: KinomeScan; assay type: binding; conditions: read-out: % control
T19 construct: purchased DiscoveRx KINOMEscan

PAK2 = biological target: T20, PAK2 (Homo sapiens, UniProt Q13177); test: KinomeScan; assay type: binding; conditions: read-out: % control
T20 construct: purchased DiscoveRx KINOMEscan

PDGFRB = biological target: T21, PDGFRB (Homo sapiens, UniProt P09619); test: KinomeScan; assay type: binding; conditions: read-out: % control
T21 construct: purchased DiscoveRx KINOMEscan

PIK3CA(C420R) = biological target: T22, PIK3CA(C420R) (Homo sapiens, UniProt P42336, C420R); test: KinomeScan; assay type: binding; conditions: read-out: % control
T22 construct: purchased DiscoveRx KINOMEscan

PIK3CA(E545K) = biological target: T23, PIK3CA(E545K) (Homo sapiens, UniProt P42336, E545K); test: KinomeScan; assay type: binding; conditions: read-out: % control
T23 construct: purchased DiscoveRx KINOMEscan

PIK3CG = biological target: T24, PIK3CG (Homo sapiens, UniProt P48736); test: KinomeScan; assay type: binding; conditions: read-out: % control
T24 construct: purchased DiscoveRx KINOMEscan

PIP5K1C = biological target: T25, PIP5K1C (Homo sapiens, UniProt O60331); test: KinomeScan; assay type: binding; conditions: read-out: % control
T25 construct: purchased DiscoveRx KINOMEscan

PIP5K2B = biological target: T26, PIP5K2B (Homo sapiens, UniProt P78356); test: KinomeScan; assay type: binding; conditions: read-out: % control
T26 construct: purchased DiscoveRx KINOMEscan

PLK2 = biological target: T27, PLK2 (Homo sapiens, UniProt Q9NYY3); test: KinomeScan; assay type: binding; conditions: read-out: % control
T27 construct: purchased DiscoveRx KINOMEscan

PRKCH = biological target: T28, PRKCH (Homo sapiens, UniProt P24723); test: KinomeScan; assay type: binding; conditions: read-out: % control
T28 construct: purchased DiscoveRx KINOMEscan

PRKR = biological target: T29, PRKR (Homo sapiens, UniProt P19525); test: KinomeScan; assay type: binding; conditions: read-out: % control
T29 construct: purchased DiscoveRx KINOMEscan

[3] = biological target: T30, RSK2(Kin.Dom.2-C-terminal) (Homo sapiens, UniProt P51812); test: KinomeScan; assay type: binding; conditions: read-out: % control
T30 construct: RSK2(Kin.Dom.2-C-terminal); purchased DiscoveRx KINOMEscan

SGK = biological target: T31, SGK (Homo sapiens, UniProt O00141); test: KinomeScan; assay type: binding; conditions: read-out: % control
T31 construct: purchased DiscoveRx KINOMEscan

STK36 = biological target: T32, STK36 (Homo sapiens, UniProt Q9NRP7); test: KinomeScan; assay type: binding; conditions: read-out: % control
T32 construct: purchased DiscoveRx KINOMEscan

TLK1 = biological target: T33, TLK1 (Homo sapiens, UniProt Q9UKI8); test: KinomeScan; assay type: binding; conditions: read-out: % control
T33 construct: purchased DiscoveRx KINOMEscan

TSSK1B = biological target: T34, TSSK1B (Homo sapiens, UniProt Q9BXA7); test: KinomeScan; assay type: binding; conditions: read-out: % control
T34 construct: purchased DiscoveRx KINOMEscan

YANK1 = biological target: T35, YANK1 (Homo sapiens, UniProt Q8WU08); test: KinomeScan; assay type: binding; conditions: read-out: % control
T35 construct: purchased DiscoveRx KINOMEscan

H1975 (EGFRL858R/T790M) = test: Anti-proliferation, NSCLC cell lines (CellTiter-Glo); assay type: cell-based, human
Procedure: The human cancer cell lines H1975, HCC827, H2122, CHO, CHL and H1355 were purchased from the American Type Culture Collection (ATCC) (Manassas, VA, USA). PC9 cell line was purchased from the Sigma-Aldrich (St. Louis, MO, USA). A549, H3255 were purchased from Cobioer Biosciences CO., LTD (Nanjing, China). […] A549 and H1355 were cultured in F-12K Nutrient Mixture (kaighn's Modification) (Gibco, USA) with 10% FBS and supplemented with 2% L-glutamine and 1% pen/strep. H3255 was cultured in BEGM media (LONZA, USA) with 10% FBS and supplemented with 2% L-glutamine and 1% pen/strep.

BaF3-INSR = test: Anti-proliferative effects, INSR transformed isogenic BaF3 cells; assay type: cell-based; conditions: Mus musculus, read-out: IC50 (anti-proliferative; GI50)
CHL = test: Anti-proliferation, normal cells (CellTiter-Glo); conditions: Cricetulus griseus, 72 h
Procedure: Cells were grown in 96-well culture plates (2500-3000/well). For adherent cell lines, compounds of various concentrations were added into the plates after cells were cultured for 12 hours. Cell proliferation was determined after treatment with compounds for 72 hours. Cell viability was measured using the CellTiter–Glo assay (Promega, USA) according to the manufacturer's instructions, and luminescence was measured in a multi-label reader (Envision, PerkinElmer, USA). Data were normalized to control groups (DMSO) and represented by the mean of three independent measurements with standard error <20%. GI50 values were calculated using Prism 5.0 (GraphPad Software, San Diego, CA).

T20 sequence (Q13177 whole entry): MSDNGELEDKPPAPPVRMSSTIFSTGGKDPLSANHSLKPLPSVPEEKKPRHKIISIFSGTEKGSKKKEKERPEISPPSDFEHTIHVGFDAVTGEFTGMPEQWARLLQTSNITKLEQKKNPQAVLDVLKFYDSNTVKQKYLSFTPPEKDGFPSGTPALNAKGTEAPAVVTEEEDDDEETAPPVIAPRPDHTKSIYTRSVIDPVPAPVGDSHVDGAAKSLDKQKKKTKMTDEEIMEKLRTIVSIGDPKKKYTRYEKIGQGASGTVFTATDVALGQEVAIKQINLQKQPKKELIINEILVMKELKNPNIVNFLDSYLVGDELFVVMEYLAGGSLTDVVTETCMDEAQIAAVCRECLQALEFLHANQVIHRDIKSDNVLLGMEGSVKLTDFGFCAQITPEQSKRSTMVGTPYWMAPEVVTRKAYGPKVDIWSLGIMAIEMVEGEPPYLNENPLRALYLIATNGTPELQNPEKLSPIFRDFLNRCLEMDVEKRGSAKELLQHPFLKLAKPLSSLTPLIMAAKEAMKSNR
T29 sequence (P19525 whole entry): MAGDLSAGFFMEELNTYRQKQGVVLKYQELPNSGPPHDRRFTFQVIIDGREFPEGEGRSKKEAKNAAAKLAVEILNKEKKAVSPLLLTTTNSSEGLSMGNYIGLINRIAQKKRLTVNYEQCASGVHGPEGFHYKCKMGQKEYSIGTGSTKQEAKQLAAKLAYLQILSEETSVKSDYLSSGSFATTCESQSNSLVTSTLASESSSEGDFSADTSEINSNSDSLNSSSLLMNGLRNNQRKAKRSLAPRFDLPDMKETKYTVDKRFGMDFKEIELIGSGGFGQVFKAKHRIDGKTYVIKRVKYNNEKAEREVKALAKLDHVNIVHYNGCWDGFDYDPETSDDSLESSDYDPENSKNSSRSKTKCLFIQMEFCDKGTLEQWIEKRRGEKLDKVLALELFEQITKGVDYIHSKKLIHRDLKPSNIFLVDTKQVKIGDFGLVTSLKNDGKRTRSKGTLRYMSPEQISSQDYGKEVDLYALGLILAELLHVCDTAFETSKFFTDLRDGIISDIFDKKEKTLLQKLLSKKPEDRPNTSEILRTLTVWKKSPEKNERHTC
T17 sequence (Q15208 whole entry): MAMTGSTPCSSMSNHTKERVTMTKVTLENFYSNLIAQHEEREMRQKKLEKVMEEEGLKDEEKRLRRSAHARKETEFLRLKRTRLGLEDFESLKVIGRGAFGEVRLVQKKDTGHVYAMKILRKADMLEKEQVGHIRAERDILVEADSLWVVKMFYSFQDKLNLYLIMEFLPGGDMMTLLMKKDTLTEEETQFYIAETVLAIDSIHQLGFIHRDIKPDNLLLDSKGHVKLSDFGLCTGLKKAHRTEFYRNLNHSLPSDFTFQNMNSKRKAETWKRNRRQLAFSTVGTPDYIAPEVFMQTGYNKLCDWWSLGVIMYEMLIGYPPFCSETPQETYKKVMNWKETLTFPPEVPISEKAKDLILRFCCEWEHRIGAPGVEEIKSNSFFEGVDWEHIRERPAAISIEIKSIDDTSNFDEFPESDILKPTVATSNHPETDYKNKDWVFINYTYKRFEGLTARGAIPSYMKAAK
T14 sequence (P54764 20-986): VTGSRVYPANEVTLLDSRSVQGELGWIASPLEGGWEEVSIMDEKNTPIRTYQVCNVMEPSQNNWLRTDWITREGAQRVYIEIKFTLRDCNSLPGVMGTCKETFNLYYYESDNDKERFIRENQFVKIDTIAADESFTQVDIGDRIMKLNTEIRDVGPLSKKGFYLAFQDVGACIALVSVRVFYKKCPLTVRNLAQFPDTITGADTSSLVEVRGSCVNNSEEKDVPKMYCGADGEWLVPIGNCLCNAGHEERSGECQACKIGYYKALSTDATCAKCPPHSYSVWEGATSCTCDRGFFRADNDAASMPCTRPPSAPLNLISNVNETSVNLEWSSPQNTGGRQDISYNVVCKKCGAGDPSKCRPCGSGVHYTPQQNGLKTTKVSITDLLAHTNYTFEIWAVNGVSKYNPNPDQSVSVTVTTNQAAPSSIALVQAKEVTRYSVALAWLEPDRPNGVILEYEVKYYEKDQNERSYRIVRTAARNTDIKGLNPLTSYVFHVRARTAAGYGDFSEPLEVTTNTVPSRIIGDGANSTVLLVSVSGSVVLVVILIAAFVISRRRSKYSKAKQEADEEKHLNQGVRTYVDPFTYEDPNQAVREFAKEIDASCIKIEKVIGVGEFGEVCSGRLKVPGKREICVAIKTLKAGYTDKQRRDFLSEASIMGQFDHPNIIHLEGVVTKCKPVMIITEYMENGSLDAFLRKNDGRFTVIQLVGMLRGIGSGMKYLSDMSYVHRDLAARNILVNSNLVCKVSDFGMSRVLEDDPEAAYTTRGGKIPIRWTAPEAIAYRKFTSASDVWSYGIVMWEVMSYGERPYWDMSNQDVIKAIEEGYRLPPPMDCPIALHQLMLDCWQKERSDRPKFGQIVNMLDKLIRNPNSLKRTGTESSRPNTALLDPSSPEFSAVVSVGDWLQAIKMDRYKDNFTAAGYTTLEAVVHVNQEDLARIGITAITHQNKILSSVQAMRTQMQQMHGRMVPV
T23 sequence (P42336 whole entry E545K): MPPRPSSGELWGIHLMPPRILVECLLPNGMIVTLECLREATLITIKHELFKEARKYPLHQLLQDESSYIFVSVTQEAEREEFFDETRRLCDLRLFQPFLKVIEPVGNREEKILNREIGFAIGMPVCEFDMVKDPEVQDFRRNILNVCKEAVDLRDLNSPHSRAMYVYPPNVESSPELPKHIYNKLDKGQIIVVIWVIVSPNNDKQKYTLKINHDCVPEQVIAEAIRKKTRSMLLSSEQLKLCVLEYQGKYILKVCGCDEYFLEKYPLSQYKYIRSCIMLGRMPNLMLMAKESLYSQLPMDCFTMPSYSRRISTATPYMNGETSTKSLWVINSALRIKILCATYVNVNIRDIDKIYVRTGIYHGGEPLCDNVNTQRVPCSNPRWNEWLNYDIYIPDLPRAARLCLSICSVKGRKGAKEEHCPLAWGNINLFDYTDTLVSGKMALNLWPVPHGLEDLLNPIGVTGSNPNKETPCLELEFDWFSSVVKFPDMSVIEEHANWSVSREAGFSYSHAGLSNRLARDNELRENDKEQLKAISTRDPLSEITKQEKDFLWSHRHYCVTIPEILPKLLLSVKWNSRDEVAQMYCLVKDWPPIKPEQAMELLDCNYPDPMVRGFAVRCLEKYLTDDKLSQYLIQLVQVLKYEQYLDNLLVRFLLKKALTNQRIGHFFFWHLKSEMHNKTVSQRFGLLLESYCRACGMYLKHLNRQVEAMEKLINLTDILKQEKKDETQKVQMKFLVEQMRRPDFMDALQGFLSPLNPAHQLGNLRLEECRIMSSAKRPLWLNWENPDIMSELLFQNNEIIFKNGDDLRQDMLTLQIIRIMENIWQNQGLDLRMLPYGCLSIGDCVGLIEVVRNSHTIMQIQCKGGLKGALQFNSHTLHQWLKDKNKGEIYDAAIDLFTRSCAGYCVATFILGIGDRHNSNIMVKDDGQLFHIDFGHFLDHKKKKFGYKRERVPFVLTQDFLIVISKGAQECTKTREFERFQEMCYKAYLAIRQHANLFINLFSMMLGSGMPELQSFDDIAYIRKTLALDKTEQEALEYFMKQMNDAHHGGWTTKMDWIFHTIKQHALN
T6 sequence (Q8NFD2 whole entry): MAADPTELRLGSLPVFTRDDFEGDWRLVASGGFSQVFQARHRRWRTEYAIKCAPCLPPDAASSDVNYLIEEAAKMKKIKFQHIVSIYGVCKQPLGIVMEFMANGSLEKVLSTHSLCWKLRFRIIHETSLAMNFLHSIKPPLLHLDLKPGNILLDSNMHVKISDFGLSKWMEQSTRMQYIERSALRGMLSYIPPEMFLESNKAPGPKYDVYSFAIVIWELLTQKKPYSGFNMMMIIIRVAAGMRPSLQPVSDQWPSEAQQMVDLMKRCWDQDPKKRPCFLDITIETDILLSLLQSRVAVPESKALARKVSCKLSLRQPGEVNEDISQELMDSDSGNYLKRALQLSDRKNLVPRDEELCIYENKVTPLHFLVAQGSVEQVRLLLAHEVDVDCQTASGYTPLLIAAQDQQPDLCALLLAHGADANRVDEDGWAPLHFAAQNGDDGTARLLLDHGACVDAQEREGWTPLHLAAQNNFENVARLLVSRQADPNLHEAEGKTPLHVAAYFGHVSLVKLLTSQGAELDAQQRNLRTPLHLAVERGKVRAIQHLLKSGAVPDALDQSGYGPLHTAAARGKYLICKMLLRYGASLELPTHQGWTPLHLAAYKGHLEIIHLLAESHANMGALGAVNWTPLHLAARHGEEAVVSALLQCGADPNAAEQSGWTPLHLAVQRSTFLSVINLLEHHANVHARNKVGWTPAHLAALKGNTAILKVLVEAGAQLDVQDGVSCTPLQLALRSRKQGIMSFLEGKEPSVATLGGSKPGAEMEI
T25 sequence (O60331 whole entry): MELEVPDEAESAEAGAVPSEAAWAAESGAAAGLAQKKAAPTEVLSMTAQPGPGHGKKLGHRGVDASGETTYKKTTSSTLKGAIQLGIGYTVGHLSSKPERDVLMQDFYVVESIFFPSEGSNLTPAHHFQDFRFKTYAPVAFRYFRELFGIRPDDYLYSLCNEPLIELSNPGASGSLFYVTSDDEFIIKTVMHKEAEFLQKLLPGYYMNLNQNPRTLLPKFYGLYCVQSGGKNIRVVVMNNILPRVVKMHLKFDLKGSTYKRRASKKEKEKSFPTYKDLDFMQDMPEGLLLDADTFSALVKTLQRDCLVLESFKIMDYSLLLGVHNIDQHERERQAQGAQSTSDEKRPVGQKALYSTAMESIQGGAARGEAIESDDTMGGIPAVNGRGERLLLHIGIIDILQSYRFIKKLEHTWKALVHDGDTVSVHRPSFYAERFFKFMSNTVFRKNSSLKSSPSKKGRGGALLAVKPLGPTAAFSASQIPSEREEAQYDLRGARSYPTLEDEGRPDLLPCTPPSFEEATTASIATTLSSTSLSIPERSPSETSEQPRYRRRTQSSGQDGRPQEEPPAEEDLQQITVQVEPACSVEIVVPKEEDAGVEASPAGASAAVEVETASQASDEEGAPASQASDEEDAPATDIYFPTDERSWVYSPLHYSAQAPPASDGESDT
T22 sequence (P42336 whole entry C420R): as the sequence (P42336 whole entry E545K) above, with C420R, K545E counted along it

C=CC(=O)N1CCC[C@@H](n2nc(-c3ccc(OCc4cccc(C)n4)c(Cl)c3)c3c(N)ncnc32)C1 [CHMFL-EGFR-26]
remaining binding at 1 µM [1]: 98%
remaining binding at 1 µM [2]: 100%
remaining binding at 1 µM (ACVR1): 96%
remaining binding at 1 µM (AKT3): 59%
remaining binding at 1 µM (AMPK-alpha1): 79%
remaining binding at 1 µM (ANKK1): 94%
remaining binding at 1 µM (BRSK1): 93%
remaining binding at 1 µM (CASK): 95%
remaining binding at 1 µM (CDK4-cyclinD3): 100%
remaining binding at 1 µM (CDK7): 100%
remaining binding at 1 µM (DLK): 78%
remaining binding at 1 µM (DMPK2): 28%
remaining binding at 1 µM (DYRK2): 86%
remaining binding at 1 µM (EPHA4): 100%
remaining binding at 1 µM (FES): 97%
remaining binding at 1 µM (ITK): 96%
remaining binding at 1 µM (NDR1): 71%
remaining binding at 1 µM (NEK11): 100%
remaining binding at 1 µM (PAK1): 59%
remaining binding at 1 µM (PAK2): 77%
remaining binding at 1 µM (PDGFRB): 94%
remaining binding at 1 µM (PIK3CA(C420R)): 100%
remaining binding at 1 µM (PIK3CA(E545K)): 81%
remaining binding at 1 µM (PIK3CG): 100%
remaining binding at 1 µM (PIP5K1C): 67%
remaining binding at 1 µM (PIP5K2B): 100%
remaining binding at 1 µM (PLK2): 89%
remaining binding at 1 µM (PRKCH): 70%
remaining binding at 1 µM (PRKR): 80%
remaining binding at 1 µM [3]: 100%
remaining binding at 1 µM (SGK): 100%
remaining binding at 1 µM (STK36): 92%
remaining binding at 1 µM (TLK1): 84%
remaining binding at 1 µM (TSSK1B): 89%
remaining binding at 1 µM (YANK1): 3.6%
fold more potent than AZD9291 (H1975 (EGFRL858R/T790M); H1975 GI50): about 170 fold
GI50 (H1975 (EGFRL858R/T790M); Homo sapiens, NCI-H1975, H1975 (EGFRL858R/T790M), 72 hours, triplet testing): < 0.0003 µM
IC50 (BaF3-INSR): 2.8 µM
GI50 (CHL): > 10 µM
